“And” between values parts separate entries of the source, which are not always exact repeats. Identical values can stand only once. After the bases stand the sugars from the 5' end (letter, count) and the backbone: PS all phosphorothioate, else s phosphorothioate and o phosphodiester by linkage. Methylation of C is not given here. k = constrained ethyl (cEt); d = 2'-deoxy (DNA)
Target: MALAT1
Conditions: ASO, A431, 0.005 µM

CTAGATTCACTGAATC (sugars k3 d10 k3, PS)
target mRNA inhibition: 7%

CTATACTTCTCCAATA (sugars k3 d10 k3, PS)
target mRNA inhibition: -13%

CTATTCTTTTCTTCGC (sugars k3 d10 k3, PS)
target mRNA inhibition: 37%

CTCACGGATTTTTACC (sugars k3 d10 k3, PS)
target mRNA inhibition: 7%

CTCAGGGTTATGCTTA (sugars k3 d10 k3, PS)
target mRNA inhibition: 40%

CTCAGTCCTAGCTTCA (sugars k3 d10 k3, PS)
target mRNA inhibition: 42%

CTCCAGCATAAAGCTG (sugars k3 d10 k3, PS)
target mRNA inhibition: 12%

CTCCCCCCCGCCTCAG (sugars k3 d10 k3, PS)
target mRNA inhibition: 12%

CTCGATGGAAAAATTT (sugars k3 d10 k3, PS)
target mRNA inhibition: 8%

CTCGGGCTGCAGGCTG (sugars k3 d10 k3, PS)
target mRNA inhibition: 19%

CTCTAATCACTGTCAA (sugars k3 d10 k3, PS)
target mRNA inhibition: 11%

CTCTGATCTGCGGCCC (sugars k3 d10 k3, PS)
target mRNA inhibition: -6%

CTGAAAGAACTAGTGG (sugars k3 d10 k3, PS)
target mRNA inhibition: 20%

CTGAAATCCCCTAGGG (sugars k3 d10 k3, PS)
target mRNA inhibition: 30%

CTGAAGAGCATTGGAG (sugars k3 d10 k3, PS)
target mRNA inhibition: 50%

CTGAAGTCAAGACAAC (sugars k3 d10 k3, PS)
target mRNA inhibition: -17%

CTGATTCTAACAGCAC (sugars k3 d10 k3, PS)
target mRNA inhibition: 55% and 49% and 50%

CTGATTTTAAGGTTGC (sugars k3 d10 k3, PS)
target mRNA inhibition: 80% and 86%

CTGCGCTTAAGAGGGC (sugars k3 d10 k3, PS)
target mRNA inhibition: 34%

CTGCTCGCCTCCTCCG (sugars k3 d10 k3, PS)
target mRNA inhibition: 16%

CTGGAAAAGCTAGGGA (sugars k3 d10 k3, PS)
target mRNA inhibition: -13%

CTGTAAACCTGTGGTG (sugars k3 d10 k3, PS)
target mRNA inhibition: 15%

CTGTGGTGGTCTGATT (sugars k3 d10 k3, PS)
target mRNA inhibition: 33%

CTGTGGTTTTAATACC (sugars k3 d10 k3, PS)
target mRNA inhibition: 51%

CTGTGTTATGCCTGGT (sugars k3 d10 k3, PS)
target mRNA inhibition: -3%

CTTAAGAGGGCAGGAG (sugars k3 d10 k3, PS)
target mRNA inhibition: -4%

CTTATCCCTAACATGC (sugars k3 d10 k3, PS)
target mRNA inhibition: 41%

CTTATTTAGAGGGCCT (sugars k3 d10 k3, PS)
target mRNA inhibition: 36%

CTTCAACAATCACTAC (sugars k3 d10 k3, PS)
target mRNA inhibition: 2%

CTTCAACTGGGAATAC (sugars k3 d10 k3, PS)
target mRNA inhibition: 7%

CTTCAAGCACCGCTTG (sugars k3 d10 k3, PS)
target mRNA inhibition: 21% and 28%

CTTCACCACGAACTGC (sugars k3 d10 k3, PS)
target mRNA inhibition: 43%

CTTCATGACCCTACTG (sugars k3 d10 k3, PS)
target mRNA inhibition: 36%

CTTCATTACCCCAACT (sugars k3 d10 k3, PS)
target mRNA inhibition: 14%

CTTCGGTGCCTTTAGT (sugars k3 d10 k3, PS)
target mRNA inhibition: 23%

CTTCGGTTTAATCTCT (sugars k3 d10 k3, PS)
target mRNA inhibition: 73% and 54%

CTTCTATAGTCTGAAG (sugars k3 d10 k3, PS)
target mRNA inhibition: 18%

CTTCTATTGGTATTAA (sugars k3 d10 k3, PS)
target mRNA inhibition: 18%

CTTCTGAACCGGAGCA (sugars k3 d10 k3, PS)
target mRNA inhibition: -27%

CTTGAAGACTGTTGCT (sugars k3 d10 k3, PS)
target mRNA inhibition: 42%

CTTGAGATTTGGGCTT (sugars k3 d10 k3, PS)
target mRNA inhibition: 12% and 2%

CTTGATCCCAACTCAT (sugars k3 d10 k3, PS)
target mRNA inhibition: 11%

CTTTAAGTTCTCTGGC (sugars k3 d10 k3, PS)
target mRNA inhibition: 64% and 82%

CTTTCCATTACGCAAC (sugars k3 d10 k3, PS)
target mRNA inhibition: 0%

GAAAAAGCTTGTTCAC (sugars k3 d10 k3, PS)
target mRNA inhibition: 28%

GAAAACCCACTCTTGG (sugars k3 d10 k3, PS)
target mRNA inhibition: 10%

GAAACCAGGAGTGCCA (sugars k3 d10 k3, PS)
target mRNA inhibition: 4%

GAAACCTGGGCTCCCG (sugars k3 d10 k3, PS)
target mRNA inhibition: 13%

GAAACTCCCCCATTAT (sugars k3 d10 k3, PS)
target mRNA inhibition: 6%

GAAATCCCTTCAGGAT (sugars k3 d10 k3, PS)
target mRNA inhibition: 14%

GAACAAGTCCTACAAT (sugars k3 d10 k3, PS)
target mRNA inhibition: 32%

GAACTCCACAGCTCTT (sugars k3 d10 k3, PS)
target mRNA inhibition: 33%

GAATCTTACTTGATAA (sugars k3 d10 k3, PS)
target mRNA inhibition: 13%

GAATTAAGACCAAGGG (sugars k3 d10 k3, PS)
target mRNA inhibition: 36%

GACAAGCAATTAACTT (sugars k3 d10 k3, PS)
target mRNA inhibition: 66% and 53%

GACAGTAGGTATAGTT (sugars k3 d10 k3, PS)
target mRNA inhibition: -13%

GACCAAACTGCAGAGT (sugars k3 d10 k3, PS)
target mRNA inhibition: 3%
